Assay [1] addresses Phosphatidylinositol 4,5-bisphosphate 3-kinase catalytic subunit alpha isoform (Homo sapiens, UniProt P42336). In kind it is cell-based, Sf9.
Description: Inhibition of N-terminal His-tagged human p110alpha expressed in Sf9 cells co-expressing p85alpha regulatory subunit using phosphatidylinositol substrate and [gamma-33P]-ATP by basic thin layer chromatography technique based lipid kinase assay
The target in assay [2] is Phosphatidylinositol 4,5-bisphosphate 3-kinase catalytic subunit beta isoform (Homo sapiens, UniProt P42338). In kind it is cell-based, Sf9.
Description: Inhibition of N-terminal His-tagged human p110beta expressed in Sf9 cells co-expressing p85alpha regulatory subunit using phosphatidylinositol substrate and [gamma-33P]-ATP by basic thin layer chromatography technique based lipid kinase assay
Assay [3] deals with T1, Phosphatidylinositol 4,5-bisphosphate 3-kinase catalytic subunit delta isoform (Homo sapiens, UniProt O00329).
T1 sequence (O00329 whole entry): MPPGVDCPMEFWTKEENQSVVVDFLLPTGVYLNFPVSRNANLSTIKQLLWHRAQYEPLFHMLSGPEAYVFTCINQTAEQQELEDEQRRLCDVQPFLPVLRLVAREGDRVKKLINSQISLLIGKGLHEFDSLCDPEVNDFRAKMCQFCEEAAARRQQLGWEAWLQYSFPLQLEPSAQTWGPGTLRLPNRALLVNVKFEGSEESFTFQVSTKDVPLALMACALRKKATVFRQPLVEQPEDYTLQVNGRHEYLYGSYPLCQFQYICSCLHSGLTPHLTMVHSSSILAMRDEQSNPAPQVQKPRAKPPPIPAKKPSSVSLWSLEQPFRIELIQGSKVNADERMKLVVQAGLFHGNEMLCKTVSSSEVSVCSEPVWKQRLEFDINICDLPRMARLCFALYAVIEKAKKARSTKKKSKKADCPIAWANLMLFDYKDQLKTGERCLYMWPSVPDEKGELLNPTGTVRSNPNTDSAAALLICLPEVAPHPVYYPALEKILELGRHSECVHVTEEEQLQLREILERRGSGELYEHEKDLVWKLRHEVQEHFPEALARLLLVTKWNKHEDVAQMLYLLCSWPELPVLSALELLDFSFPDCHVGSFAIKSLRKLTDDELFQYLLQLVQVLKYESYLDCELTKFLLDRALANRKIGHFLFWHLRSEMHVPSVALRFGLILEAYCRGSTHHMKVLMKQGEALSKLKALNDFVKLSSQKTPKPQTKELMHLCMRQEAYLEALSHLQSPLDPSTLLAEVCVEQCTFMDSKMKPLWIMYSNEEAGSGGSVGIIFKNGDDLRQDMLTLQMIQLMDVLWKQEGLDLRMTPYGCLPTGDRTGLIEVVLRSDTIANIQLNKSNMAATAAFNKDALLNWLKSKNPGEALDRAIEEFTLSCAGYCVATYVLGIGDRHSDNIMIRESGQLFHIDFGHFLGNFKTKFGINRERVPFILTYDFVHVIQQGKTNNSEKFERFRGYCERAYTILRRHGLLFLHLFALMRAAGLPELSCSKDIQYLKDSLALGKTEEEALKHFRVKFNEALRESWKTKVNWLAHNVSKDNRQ
In kind it is cell-based, Sf9.
Description: Inhibition of N-terminal His-tagged human p110delta expressed in Sf9 cells co-expressing p85alpha regulatory subunit using phosphatidylinositol substrate and [gamma-33P]-ATP by basic thin layer chromatography technique based lipid kinase assay

Assay [4] can be described thus: Inhibition of cell proliferation of human NZB5 cells containing wild-type p110alpha gene incubated for 5 days by [3H]thymidine incorporation assay. The assay is classed as functional, cell-based. (In general: Dividing cells build labelled thymidine or BrdU into new DNA.)
Assay [5] in a line: Inhibition of cell proliferation of human NZOV9 cells containing wild-type p53 protein and p110alpha Y1021C mutant incubated for 5 days by [3H]thymidine incorporation assay. The assay is classed as functional, cell-based.

Sequence of Phosphatidylinositol 4,5-bisphosphate 3-kinase catalytic subunit alpha isoform (P42336 whole entry, canonical isoform): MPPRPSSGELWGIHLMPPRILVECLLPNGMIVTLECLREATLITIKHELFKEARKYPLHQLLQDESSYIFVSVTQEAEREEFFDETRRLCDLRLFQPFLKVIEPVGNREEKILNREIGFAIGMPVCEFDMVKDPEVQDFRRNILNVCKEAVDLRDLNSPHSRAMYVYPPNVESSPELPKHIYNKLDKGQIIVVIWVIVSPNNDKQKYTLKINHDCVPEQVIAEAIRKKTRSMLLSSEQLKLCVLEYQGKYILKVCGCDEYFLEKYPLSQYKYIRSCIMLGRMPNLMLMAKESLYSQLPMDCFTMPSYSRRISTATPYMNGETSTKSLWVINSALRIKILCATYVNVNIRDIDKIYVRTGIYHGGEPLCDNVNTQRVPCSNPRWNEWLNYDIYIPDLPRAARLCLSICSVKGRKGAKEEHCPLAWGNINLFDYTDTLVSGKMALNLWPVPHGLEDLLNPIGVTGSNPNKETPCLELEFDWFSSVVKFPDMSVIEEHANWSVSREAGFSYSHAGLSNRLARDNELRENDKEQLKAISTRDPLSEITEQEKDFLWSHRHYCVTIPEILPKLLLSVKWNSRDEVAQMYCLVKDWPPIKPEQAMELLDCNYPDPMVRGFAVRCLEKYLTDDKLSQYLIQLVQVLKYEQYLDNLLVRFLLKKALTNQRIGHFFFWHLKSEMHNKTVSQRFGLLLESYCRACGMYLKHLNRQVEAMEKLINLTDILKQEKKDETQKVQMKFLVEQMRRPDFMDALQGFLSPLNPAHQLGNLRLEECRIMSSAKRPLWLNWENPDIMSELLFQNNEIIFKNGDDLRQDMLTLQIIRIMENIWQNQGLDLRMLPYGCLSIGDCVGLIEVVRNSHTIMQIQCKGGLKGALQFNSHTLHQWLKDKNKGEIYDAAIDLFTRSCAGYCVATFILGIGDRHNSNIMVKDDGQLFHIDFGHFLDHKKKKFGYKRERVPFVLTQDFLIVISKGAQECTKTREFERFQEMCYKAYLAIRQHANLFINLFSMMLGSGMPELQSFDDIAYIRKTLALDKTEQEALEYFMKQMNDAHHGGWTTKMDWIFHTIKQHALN
Sequence of Phosphatidylinositol 4,5-bisphosphate 3-kinase catalytic subunit beta isoform (P42338 whole entry, canonical isoform): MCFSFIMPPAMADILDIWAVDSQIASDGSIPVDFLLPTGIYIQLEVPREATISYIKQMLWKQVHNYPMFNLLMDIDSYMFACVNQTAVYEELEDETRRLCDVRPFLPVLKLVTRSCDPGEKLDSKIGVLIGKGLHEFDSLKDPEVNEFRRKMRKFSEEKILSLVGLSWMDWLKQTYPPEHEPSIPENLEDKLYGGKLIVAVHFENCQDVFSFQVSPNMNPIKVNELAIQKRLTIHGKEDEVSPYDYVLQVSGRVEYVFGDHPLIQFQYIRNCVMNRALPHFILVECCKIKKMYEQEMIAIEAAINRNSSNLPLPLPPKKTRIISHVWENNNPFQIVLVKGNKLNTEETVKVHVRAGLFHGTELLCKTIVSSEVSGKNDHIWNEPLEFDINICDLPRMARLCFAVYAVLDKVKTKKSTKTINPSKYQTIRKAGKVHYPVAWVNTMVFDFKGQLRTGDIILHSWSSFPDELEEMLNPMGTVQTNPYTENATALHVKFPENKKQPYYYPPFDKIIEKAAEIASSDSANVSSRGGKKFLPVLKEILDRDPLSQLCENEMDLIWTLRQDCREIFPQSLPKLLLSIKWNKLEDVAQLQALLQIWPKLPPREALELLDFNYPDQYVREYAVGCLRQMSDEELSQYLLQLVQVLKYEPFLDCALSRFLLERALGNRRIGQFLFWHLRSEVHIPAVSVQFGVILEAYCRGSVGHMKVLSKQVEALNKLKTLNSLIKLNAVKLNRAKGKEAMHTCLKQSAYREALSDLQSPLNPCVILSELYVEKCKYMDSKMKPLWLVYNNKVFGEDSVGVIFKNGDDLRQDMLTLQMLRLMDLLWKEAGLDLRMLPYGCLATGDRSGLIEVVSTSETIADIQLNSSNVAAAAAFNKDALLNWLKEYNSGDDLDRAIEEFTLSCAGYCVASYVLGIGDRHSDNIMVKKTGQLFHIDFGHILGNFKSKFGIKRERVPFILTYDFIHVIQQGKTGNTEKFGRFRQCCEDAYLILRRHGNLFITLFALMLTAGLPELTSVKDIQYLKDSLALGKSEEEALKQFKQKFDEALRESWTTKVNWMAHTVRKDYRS

By IC50 is commonly meant the concentration that gives 50% inhibition. Lower therefore signals higher potency. For the compound `Cc1cccc(Nc2cc(C)cn3c(=O)cc(N4CCOCC4)nc23)c1`, the half-inhibitory concentration (IC50) in assay [1] was above 1 µM; in assay [2], 1.2 µM; in assay [3], 0.47 µM; in assay [4] it was 0.9 µM; in assay [5], 0.6 µM.

On to `O=C(Nc1cccn2c(=O)cc(N3CCOCC3)nc12)c1ccccc1`, for which the IC50 in assay [1] stood at 0.51 µM; in assay [2], 1.8 µM; in assay [3], 0.22 µM; in assay [4], 10 µM; in assay [5], 2.5 µM.

On to `N#Cc1ccc(OCc2cccn3c(=O)cc(N4CCOCC4)nc23)cc1`, for which the IC50 in assay [1] was above 10 µM; in assay [2], 1 µM; in assay [3], 1.5 µM; in assay [4], above 20 µM; in assay [5], 18 µM.

For `Cc1ccc(Nc2cc(C)cn3c(=O)cc(N4CCOCC4)nc23)cc1`, the IC50 in assay [1] came out at 2.9 µM; in assay [2] it was 3.2 µM; in assay [3] it was 1 µM; in assay [4], 1 µM; in assay [5], 1.6 µM.

On to `COc1ccc(OCc2cccn3c(=O)cc(N4CCOCC4)nc23)cc1`, for which the IC50 in assay [1] came to 1.6 µM; in assay [2], 1.4 µM; in assay [3], 0.46 µM; in assay [4] it was 13 µM; in assay [5], 14 µM.

For `Cc1cc(N[C@H](C)c2ccccc2)c2nc(N3CCOCC3)cc(=O)n2c1`, the IC50 in assay [1] amounted to 2.7 µM; in assay [2] it was 2.3 µM; in assay [3], 0.8 µM; in assay [4] it was 0.7 µM; in assay [5] it was 0.8 µM.

Consider `O=C(Nc1ccccc1)c1cccn2c(=O)cc(N3CCOCC3)nc12`, for which the IC50 came out at 0.49 µM in assay [1]; 3.6 µM in assay [2]; 0.15 µM in assay [3]; 2 µM in assay [4]; 7 µM in assay [5].

Regarding `Cc1cc(NCc2ccncc2)c2nc(N3CCOCC3)cc(=O)n2c1`, the IC50 in assay [1] came out at 4.9 µM; in assay [2], 4.2 µM; in assay [3], 0.71 µM; in assay [4] it was 14 µM; in assay [5], 14 µM.

Turning to `O=c1cc(N2CCOCC2)nc2c(CSc3ccccc3)cccn12`, the IC50 in assay [1] amounted to 1.5 µM; in assay [2], 0.57 µM; in assay [3], 0.57 µM; in assay [4] it was 7.8 µM; in assay [5], 6.3 µM.

With `Cc1cc(N(C)c2ccccc2)c2nc(N3CCOCC3)cc(=O)n2c1`, the IC50 in assay [1] worked out at 4.4 µM; in assay [2], 0.67 µM; in assay [3], 0.9 µM; in assay [4] it was 2 µM; in assay [5], 5 µM.

Consider `Cc1cccc(NC(=O)c2cccn3c(=O)cc(N4CCOCC4)nc23)c1`, for which the IC50 came to 0.85 µM in assay [1]; 3.9 µM in assay [2]; 0.3 µM in assay [3]; 8 µM in assay [4]; 2.8 µM in assay [5].

The record behind these values is ChEMBL document CHEMBL3585342, “Exploring the isoform selectivity of TGX-221 related pyrido[1,2-a]pyrimidinone-based Class IA PI 3-kinase inhibitors: synthesis, biological evaluation and molecular modelling” (Bioorg Med Chem, 2015).
